Measurements reported in patent US9505768B2, “Compositions and methods for modulating TLR4” (The Regents of the University of California, priority 2012, dated 2016).
Entries after “also recorded” stand apart in the source; their conditions may differ. Where two headings read alike, the source gives them in different places. Blank lines part the entries; values can stand above or below the compound they belong to.

Columns and labels:
[1] = test system: human peripheral blood mononuclear cells (hPBMC); assay: IL-8 release from human PBMC (ELISA); assay type: cell-based; settings: compound 1 10 μM
[2] = test system: TLR2, TLR3, TLR4/MD-2/CD14, TLR5, TLR7, TLR8, or TLR9 expressing HEK293 cells; settings: 10 μM, 20-24 h, SEAP
human TLR4 = target: T1, human TLR4 (Homo sapiens, UniProt O00206+Q9Y6Y9); assay: Human TLR4 HEK Blue NFκB/SEAP reporter assay; assay type: cell-based; settings: for human TLR4, values normalized to Cmpd 1: hTLR4 HEK293 transfectoma, all compounds tested at 10 μM, Cmpd 1 set at 100
T1 construct: host or cells: HEK293 (HEK Blue) cells with NFκB/SEAP reporter
T1 sequence (O00206 24-839): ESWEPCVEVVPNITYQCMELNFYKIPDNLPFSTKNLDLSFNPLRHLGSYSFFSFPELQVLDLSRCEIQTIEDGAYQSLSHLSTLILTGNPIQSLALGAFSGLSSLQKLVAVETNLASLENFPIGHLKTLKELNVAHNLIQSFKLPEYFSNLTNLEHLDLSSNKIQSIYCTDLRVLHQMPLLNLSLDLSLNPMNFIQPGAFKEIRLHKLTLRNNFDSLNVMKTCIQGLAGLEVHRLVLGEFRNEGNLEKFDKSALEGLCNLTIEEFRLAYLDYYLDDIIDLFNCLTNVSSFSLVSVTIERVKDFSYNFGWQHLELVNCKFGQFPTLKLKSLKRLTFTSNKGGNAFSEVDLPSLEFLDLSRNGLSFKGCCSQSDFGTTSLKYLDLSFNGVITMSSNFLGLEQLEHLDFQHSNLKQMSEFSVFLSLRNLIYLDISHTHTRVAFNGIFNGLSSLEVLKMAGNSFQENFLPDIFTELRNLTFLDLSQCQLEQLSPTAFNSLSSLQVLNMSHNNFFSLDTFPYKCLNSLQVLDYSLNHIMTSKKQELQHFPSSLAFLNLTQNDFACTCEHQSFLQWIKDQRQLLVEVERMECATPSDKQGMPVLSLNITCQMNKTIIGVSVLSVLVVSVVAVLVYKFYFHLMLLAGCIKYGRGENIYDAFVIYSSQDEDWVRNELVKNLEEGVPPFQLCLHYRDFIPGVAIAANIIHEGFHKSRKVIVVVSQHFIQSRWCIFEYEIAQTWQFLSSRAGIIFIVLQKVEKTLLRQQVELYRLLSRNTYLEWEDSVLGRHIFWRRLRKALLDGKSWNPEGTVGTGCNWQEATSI
T1 sequence (Q9Y6Y9 19-160): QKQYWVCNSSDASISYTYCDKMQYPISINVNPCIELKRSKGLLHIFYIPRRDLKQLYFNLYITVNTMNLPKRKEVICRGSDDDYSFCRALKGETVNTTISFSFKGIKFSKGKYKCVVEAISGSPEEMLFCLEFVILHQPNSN
Procedure: (§1) The above assays were utilized to compare the derivatives of the lead pyrimidoindole for their ability to activate mouse and human TLR4. […] Each cytokine induction curve was first converted to a percent activity curve, and then the AUC of the percent activity curve was calculated. The process of converting to a percent activity curve allowed subtracting background and adjusting for plate-to-plate variation.
(§2) The culture supernatants were harvested after a 20-24 h incubation period. SEAP activity in the supernatants was determined by a colorimetric assay, using either the SEAPorter Assay Kit (Imgenex), with absorbance read at 405 nm, or QuantiBlue (Invivogen), with absorbance read at 630 nm.

mouse TLR4 = target: T2, mouse TLR4 (Mus musculus, UniProt Q9JHF9+Q9QUK6); assay: Murine TLR4 HEK Blue NFκB/SEAP reporter assay; assay type: cell-based; settings: for mouse TLR4, area under curve (AUC) values normalized to Cmpd 1: mTLR4 HEK transfectoma, 312 nM to 10 μM, Cmpd 1 set at 100
T2 construct: host or cells: HEK293 (HEK Blue) cells with NFκB/SEAP reporter
T2 sequence (Q9QUK6 26-835): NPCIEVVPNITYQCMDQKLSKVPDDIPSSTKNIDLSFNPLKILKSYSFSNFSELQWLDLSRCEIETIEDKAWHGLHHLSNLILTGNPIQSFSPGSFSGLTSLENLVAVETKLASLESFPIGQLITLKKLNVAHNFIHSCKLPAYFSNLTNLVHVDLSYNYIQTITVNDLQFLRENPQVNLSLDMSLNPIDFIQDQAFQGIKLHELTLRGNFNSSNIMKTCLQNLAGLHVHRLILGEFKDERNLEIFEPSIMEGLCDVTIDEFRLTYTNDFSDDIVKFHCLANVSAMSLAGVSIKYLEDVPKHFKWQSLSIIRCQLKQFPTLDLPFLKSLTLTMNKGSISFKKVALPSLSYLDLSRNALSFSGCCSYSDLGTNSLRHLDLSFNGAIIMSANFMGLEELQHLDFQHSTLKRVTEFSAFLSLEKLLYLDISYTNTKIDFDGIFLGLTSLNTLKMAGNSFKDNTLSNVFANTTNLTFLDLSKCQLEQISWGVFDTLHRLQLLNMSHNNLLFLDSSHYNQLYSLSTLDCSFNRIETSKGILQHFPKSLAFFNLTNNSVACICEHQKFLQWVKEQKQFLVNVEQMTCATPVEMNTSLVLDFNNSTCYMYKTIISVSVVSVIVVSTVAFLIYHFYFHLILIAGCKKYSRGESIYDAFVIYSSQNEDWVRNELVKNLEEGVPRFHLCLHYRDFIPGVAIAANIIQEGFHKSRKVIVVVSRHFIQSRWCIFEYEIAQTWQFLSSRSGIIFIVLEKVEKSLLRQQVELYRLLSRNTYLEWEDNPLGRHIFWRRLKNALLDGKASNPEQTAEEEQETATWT
T2 sequence (Q9JHF9 19-160): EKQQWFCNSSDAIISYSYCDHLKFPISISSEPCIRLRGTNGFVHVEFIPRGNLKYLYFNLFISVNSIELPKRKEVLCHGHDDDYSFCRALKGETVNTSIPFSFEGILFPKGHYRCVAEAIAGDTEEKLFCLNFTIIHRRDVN
Procedure: as §1, §2

[3] = test system: mouse bone marrow derived dendritic cells (mBMDC); assay: IP-10 induction in mBMDC (ELISA), surrogate marker of type I IFN; assay type: cell-based
[4] = test system: mouse bone marrow derived dendritic cells (mBMDC)
[5] = test system: mouse bone marrow derived dendritic cells (mBMDC); assay: IL-6 induction in mouse bone marrow derived dendritic cells (ELISA); assay type: cell-based; settings: relative to Cmpd 1 / within series
Procedure: as §1
(§3) BMDC were prepared from C57BL/6 mice as described. See e.g., Wu, C. […] BMDC (10^5 cells per well) were plated in 96-well plates in 200 μL of complete RPMI1640 supplemented with 10% fetal calf serum (FCS; Sigma Aldrich), 100 U/mL penicillin, and 100 μg/mL streptomycin (Invitrogen). […] After 18 h incubation, the cell culture supernatants were collected. LPS (purified LPS, Invivogen, San Diego, Calif.) or MPLA (1 μg/mL synthetic MPLA, Invivogen, San Diego, Calif.) were used as positive controls. […] The AUC was calculated from BMDC dose-response curves using Prism 5 (GraphPad, San Diego). Each cytokine induction curve was first converted to a percent activity curve, and then the AUC of the percent activity curve was calculated. The process of converting to a percent activity curve allowed subtracting background and adjusting for plate-to-plate variation.

[6] = test system: mouse bone marrow derived dendritic cells (mBMDC); assay: as above; assay type: cell-based
mBMDC = assay: MTT viability assay in mBMDC; settings: 18 h, concentrations up to 10 μM
[7] = test system: mouse bone marrow derived dendritic cells (mBMDC); assay: IP-10 induction in mBMDC (ELISA), surrogate marker of type I IFN; assay type: cell-based; settings: relative to Cmpd 1
Procedure: In addition to the production of inflammatory cytokines (IL-6, IL-12, TNFα, etc.) mediated by NFκB activation, TLR4 signaling can result in the production of type I interferons, a feature that is not only important for activation of dendritic cells leading to good adjuvant activity, but would also be important for rapid defense against a variety of pathogens, particularly viruses. […] To determine the relative ability of all compounds to induce the production of type 1 IFN, each was evaluated in mouse bone marrow derived dendritic cells as shown in Tables 1-3.
as §3
In addition, the levels of IP-10, a surrogate marker of type I IFN, in the supernatants were determined by ELISA (R&D Systems, Minneapolis, Minn.).

C57BL/6 mice [8] = settings: in vivo
[9] = Oral bioavailability in mice (serum LC/MS); assay type: in vivo; settings: mouse, C57BL/6 mice, 1 μmol oral vs 500 nmol i.v., AUC method
Procedure: FIG. 14 depicts time course showing that Cmpd 42 is orally bioavailable in mice. C57BL/6 mice were intravenously (500 nmol) or orally (1 μmol) administered with Cmpd 42. Sera were collected at the indicated time point and concentration of the compound were measured by LC/MS. Legend: oral administration, closed circle; i.v. administration, closed box. X-axis: time (min). Y-axis: concentration of Cmpd 42 (nM).
To test oral bioavailability, Cmpd 42 was orally or intravenously administered to C57BL/6 mice and the drug concentration in sera was measured. Results are depicted in FIG. 14.

C57BL/6 mice [10] = assay: Protection from LPS/galactosamine-induced lethal liver injury; assay type: in vivo, mouse
Procedure: FIGS. 11A-11B depict that administration of Cmpd 42 and Cmpd 33 protects hosts from LPS-induced lethal liver injury. FIG. 11A: Schematic showing that C57BL/6 mice were intraperitoneously injected with 500 nmol Cmpd. 42 (n=11) or Cmpd 33 (n=11). 40 μg MPLA (n=9) and vehicle (n=9) were used as positive and negative controls, respectively. Next day, mice were challenged with LPS (0.2 μg/animal) and galactosamine (12 mg/animal). FIG. 11B: Histogram showing results of sera collected 1.5 h post challenge and measured for TNFα. *:p<0.05 compared to vehicle treated mice.
Lipopolysaccharide (LPS), a TLR4 ligand, causes severe lethal liver injury when administered with galactosamine. Pretreatment of mice with MPLA is known to improve the survival in this model. To study whether Cmpd 42 and Cmpd 33 are able to act as immunomodulatory agents similar to MPLA, the mice were treated with Cmpd 42 or Cmpd 33 and challenged with LPS/galatosamine the next day, as depicted in FIG. 11A. Over 80% of Cmpd 42 and 100% of Cmpd 33-treated mice survived.

[11] = WT vs Cd14-/- mBMDC, 3.7 μM overnight

Compound: O=C(CSc1nc2c([nH]c3ccccc32)c(=O)n1-c1ccccc1)NC1CCCCC1 [Compound 1, N-cyclohexyl-2-((4-oxo-3-phenyl-4,5-dihydro-3H-pyrimido[5,4-b]indol-2-yl)thio)acetamide]
IL-8 released by hPBMC cultures (average, SD) [1]: 7.8 ± 0.8 ng/mL | TLR selectivity among TLR transfected HEK293 reporter cells [2]: only those expressing TLR4/MD-2/CD14 responded | human TLR4 reporter cell activation (in words) (human TLR4): dose-dependent activation | OD630 of human TLR4 reporter cells (human TLR4; 10 μM Cmpd 1): 0.88 | human TLR4, values normalized to Cmpd 1 (human TLR4): 100 | mouse TLR4 reporter cell activation (in words) (mouse TLR4): dose-dependent activation | relative reporter activation, murine TLR4 cells (mouse TLR4; 5 μM Cmpd 1): 1.52±0.03 | mouse TLR4, area under curve (AUC) values normalized to Cmpd 1 (mouse TLR4): 100 | IP-10 production [3]: dose-dependent response | IP-10 production in mBMDC (in words) [3]: high IP-10 production | IP-10 released by mBMDC cultures (average) [3]: 590.0 ± 10.5 pg/mL | CD14 dependence of type I IFN production [4, 11]: not dependent on CD14 | type I IFN production ([4]; graded doses, mBMDC overnight): dose-dependent response | IL-6 activity in mBMDC (in words) [5]: the most active; also recorded: high IL-6 | IL-6 released by mBMDC cultures (average, SD) ([6]; 5 μM Cmpd 1): 10.5 ng/mL | IL-6 secretion in TLR4 deficient vs wild-type mBMDC ([6]; 10 μM, 18 h): completely abrogated | CD14 dependence of IL-6 production [6, 11]: not dependent on CD14; also recorded: retains IL-6 activity

Compound: CCCn1c2ccccc2c2nc(SCC(=O)NC3CCCCC3)n(-c3ccccc3)c(=O)c21 [Compound 48, N-cyclohexyl-2-((4-oxo-3-phenyl-5-propyl-4,5-dihydro-3H-pyrimido[5,4-b]indol-2-yl)thio)acetamide]
cell viability (MTT) (mBMDC): did not reduce cell viability

human TLR4, values normalized to Cmpd 1 (human TLR4): 19 | mouse TLR4, area under curve (AUC) values normalized to Cmpd 1 (mouse TLR4): 55
Compound: N#CCn1c2ccccc2c2nc(SCC(=O)NC3CCCCC3)n(-c3ccccc3)c(=O)c21 [Compound 51, 2-((5-(cyanomethyl)-4-oxo-3-phenyl-4,5-dihydro-3H-pyrimido[5,4-b]indol-2-yl)thio)-N-cyclohexylacetamide]
cell viability (MTT) (mBMDC): did not reduce cell viability

Compound: Cn1c2ccccc2c2nc(SCC(=O)NC3CCCCC3)n(-c3ccccc3)c(=O)c21 [Compound 42, N-cyclohexyl-2-((5-methyl-4-oxo-3-phenyl-4,5-dihydro-3H-pyrimido[5,4-b]indol-2-yl)thio)acetamide]
cell viability (MTT) (mBMDC): did not reduce cell viability | IP-10 production in mBMDC (in words) [7]: high IP-10 production | human TLR4, values normalized to Cmpd 1 (human TLR4): 92 | mouse TLR4, area under curve (AUC) values normalized to Cmpd 1 (mouse TLR4): 100 | mice survived (C57BL/6 mice [8]; C57BL/6, mouse): 100% | maximum tolerated dose relative to MPLA (C57BL/6 mice [8]; mouse): > 10 times | serum TNFα (C57BL/6 mice [8]; mouse): significantly lower level | IP-10 induction in LPS mutant (Trif lps/lps) cells ([3]; 5 μM overnight, vs C57BL/6 WT): significantly decreased | bioavailability [9]: ~15% | IL-6 activity in mBMDC (in words) [5]: high IL-6 | IL-6 secretion in MyD88 null dendritic cells ([6]; 5 μM overnight, vs C57BL/6 WT): significantly impaired | serum TNFα (C57BL/6 mice [10]; […] post challenge, compared to vehicle treated mice): significantly lower level | mice survived (C57BL/6 mice [10]; i.p. pretreatment 500 nmol, LPS/galactosamine challenge next day): Over 80% | Survival (C57BL/6 mice [10]; i.p. pretreatment (500 nmol Cmpd, 40 μg MPLA), next day LPS 0.2 μg + galactosamine 12 mg per animal, survivors/treated): 9/11
